Earlier results as cited in US20160001001A1 (priority 2013, published 2016).

Conditions: in vivo

CN1CC[C@]23c4c5ccc(O)c4O[C@H]2[C@@H](O)C=C[C@H]3[C@H]1C5 [Morphine]
Onset time: 8 min
Time elapsing until the maximum analgesic effect is reached: 25 min
